What was measured:
EL4 tumors = experiment: Anti-tumor efficacy of Compound 1 with and without anti-PD-1 in the subcutaneous EL4 murine lymphoma model (Example 2C); format: in vivo, Mus musculus; details: for ILS (%) / MST: endpoint tumor volume 2000 mm^3
Procedure: Female C57BL/6 mice were inoculated subcutaneously at the right flank with EL4 cells for tumor development. Five days after tumor inoculation, 48 mice with tumor size ranging from 50-76 mm^3 (average tumor size 65 mm^3) were selected and assigned into 6 groups using stratified randomization with 8 mice per group based upon their tumor volumes. The treatments were started from the day of randomization (defined as D0), Group 1 was treated with Vehicle (Tween 80:Ethanol:Saline—5:5:90 v/v/v), s.c., qd×4, Group 2 was treated with anti-PD-1 10 mg/kg i.p. q4d×4, Group 3 was treated with Compound 1 0.3 mg/kg s.c. q.d.×14, Group 4 was treated with Compound 1 0.3 mg/kg s.c. q.d.×14+anti-PD-1 10 mg/kg i.p. q4d×4, Group 5 was treated with Compound 1 1 mg/kg s.c. q.d.×14, Group 6 was treated with Compound 1 1 mg/kg s.c. q.d.×14+anti-PD-1 10 mg/kg i.p. q4d×4. The tumor sizes were measured three times per week during the treatment. The entire study was terminated on D19 after start of the treatment.
Animal Species: Mus musculus; Strain: […]; Age: 6-8 weeks; Sex: female; Body weight (at treatment start): 17-22 g.
The EL4 tumor cells were maintained in vitro as a monolayer culture in DMEM medium supplemented with 10% heat inactivated horse serum and 100 μg/mL penicillin streptomycin at 37° C. in an atmosphere of 5% CO2 in air. The tumor cells were routinely subcultured twice weekly by trypsin-EDTA treatment. The cells growing to a confluency around 70%-80% were harvested and counted for tumor inoculation. The cultured EL4 were harvested, re-suspended in base medium at a density of […] with viability>90%. Each mouse was inoculated subcutaneously at the right flank with 2×10^5 in 0.1 ml base medium for tumor development.
The treatments were started on day 5 after tumor inoculation when the tumor size reached 50-76 mm^3 (average tumor size 65 mm^3). Each group consisted of 8 tumor bearing mice. The testing article was administrated at the dosing volume indicated to the mice according to the predetermined regimen as shown Table 2C-1. Testing article formulations were prepared according to standard procedures. Details regarding tumor measurements and endpoints, and statistical analysis are provided in EXAMPLE 3.
Tumor sizes were measured three times a week in two dimensions using a caliper, and the volume expressed in mm^3 using the formula: V=0.5 a×b^2 where a and b are the long and short diameters of the tumor, respectively. The tumor sizes were then used for the calculations of both tumor growth inhibition (TGI) and T/C values.
TGI is calculated for each group using the formula: […]
TVTreatment_DayN is the average tumor volume of a treatment group on a given day, TVTreatment_Day0 is the average tumor volume of the treatment group on the first day of treatment, TVVehicle_DayN is the average tumor volume of the vehicle control group on a given day, and TVVehicle_Day0 is the average tumor volume of the vehicle group on the first day of treatment.
The T/C value (in percent) is an indication of antitumor effectiveness, T/C (%)=RTVTreatment/RTVControl×100% (RTVTreatment: the mean RTV of the treatment group; RTVControl: the mean RTV of the vehicle treated group). RTV (relative tumor volume)=TVDayN/TVDay0. TVDayN and TVDay0 is the tumor volume on day N and Day 0 respectively. T/C (%)≤42% is considered as significant antitumor activity and <10% is considered as highly significant antitumor activity by the National Cancer Institute criteria.
Animal survival curve: When an individual animal reached to the termination endpoint (TV>2000 mm^3), the mouse was euthanized. The time from treatment initiation to the termination was deemed as its survival time. Survival curve was plotted by Kaplan-Meier method. Median survival time (MST) was calculated for each group. Increase of life span (ILS) was calculated according to the following formula: […]
ILS (%)>25% is considered as a biologically significant survival benefit. […]

CT26 tumors = experiment: CT26 model, Compound 1 5-day ON 2-day OFF with and without anti-PD-1 (Example 2B, similar experiment, Tables 2B-5/2B-6); format: in vivo, mice; details: for Cures / Median Survival: 5-day ON 2-day OFF; for Mean Tumor Vol / TGI: Day 15; for BWC: mouse, in vivo
[1] = 0.15 mg/kg 5-day ON 2-day OFF x 4 cycles
[2] = 0.5 mg/kg 5-day ON 2-day OFF x 4 cycles
[3] = 1.4 mg/kg 5-day ON 2-day OFF x 4 cycles

Compound: CC(=O)N[C@@H](Cc1c[nH]c2ccccc12)C(=O)N[C@@H](CCC(=O)C=[N+]=[N-])C(=O)OC(C)C [Compound 1, Isopropyl (S)-2-((S)-2-acetamido-3-(1H-indol-3-yl)propanamido)-6-diazo-5-oxohexanoate]
- ILS (%) (EL4 tumors; Compound 1 0.3 mg/kg): 0%
- MST (EL4 tumors; Compound 1 0.3 mg/kg): 9 days
- ILS (%) (EL4 tumors; Compound 1 1 mg/kg): 35.7%
- MST (EL4 tumors; Compound 1 1 mg/kg): 14 days
- RTV at day 7 (EL4 tumors; Cpd. 1 0.3 mg/kg): 21.9 ± 1.51
- RTV at day 7 (EL4 tumors; Cpd. 1 1 mg/kg): 11.2 ± 1.25
- Tumor volume (Mean ± SEM) (EL4 tumors; Day 0, Cpd. 1 0.3 mg/kg): 65 ± 3 mm^3
- Tumor volume (Mean ± SEM) (EL4 tumors; Day 0, Cpd. 1 1 mg/kg): 65 ± 3 mm^3
- Tumor volume (Mean ± SEM) (EL4 tumors; Day 2, Cpd. 1 0.3 mg/kg): 245 ± 6 mm^3
- Tumor volume (Mean ± SEM) (EL4 tumors; Day 2, Cpd. 1 1 mg/kg): 194 ± 15 mm^3
- Tumor volume (Mean ± SEM) (EL4 tumors; Day 5, Cpd. 1 0.3 mg/kg): 763 ± 29 mm^3
- Tumor volume (Mean ± SEM) (EL4 tumors; Day 5, Cpd. 1 1 mg/kg): 613 ± 62 mm^3
- T/C (EL4 tumors; Day 7, Cpd. 1 0.3 mg/kg): 73.86%
- TGI (EL4 tumors; Day 7, Cpd. 1 0.3 mg/kg): 28.88%
- Tumor volume (Mean ± SEM) (EL4 tumors; Day 7, Cpd. 1 0.3 mg/kg): 1391 ± 41 mm^3
- T/C (EL4 tumors; Day 7, Cpd. 1 1 mg/kg): 37.76%
- TGI (EL4 tumors; Day 7, Cpd. 1 1 mg/kg): 64.42%
- Tumor volume (Mean ± SEM) (EL4 tumors; Day 7, Cpd. 1 1 mg/kg): 728 ± 96 mm^3
- Cures (CT26 tumors; Compound 1 0.15 mg/kg): 0%
- Median Survival (CT26 tumors; Compound 1 0.15 mg/kg): 26 days
- Cures (CT26 tumors; Compound 1 0.5 mg/kg): 0%
- Median Survival (CT26 tumors; Compound 1 0.5 mg/kg): 36 days
- Cures (CT26 tumors; Compound 1 1.4 mg/kg): 0%
- Median Survival (CT26 tumors; Compound 1 1.4 mg/kg): 37 days
- Mean Tumor Vol (CT26 tumors; [1]): 188 ± 29 mm^3
- TGI (CT26 tumors; [1]): 76%
- Mean Tumor Vol (CT26 tumors; [2]): 150 ± 21 mm^3
- TGI (CT26 tumors; [2]): 88%
- Mean Tumor Vol (CT26 tumors; [3]): 106 ± 16 mm^3
- TGI (CT26 tumors; [3]): 91%
- BWC (CT26 tumors; 0.15 mg/kg): 7%
- BWC (CT26 tumors; 0.5 mg/kg): 1.4%
- BWC (CT26 tumors; 1.4 mg/kg): −11%

Reference: patent US20220117938A1, “COMBINATON THERAPY WITH A DON PRODRUG AND AN IMMUNE CHECKPOINT INHIBITOR” (DRACEN PHARMACEUTICALS, INC., priority 2019, published 2022)
